The results in this text go back to PubChem BioAssay AID1259407 (Chemical Carcinogenesis Research Information System (CCRIS), 2018).

This series has as its system CCRIS mutagenicity, Ames/micronucleus/aberration tests. Briefly: CCRIS mutagenicity studies.
Setting [1] is: Test System: AMES SALMONELLA TYPHIMURIUM, Strain/Indicator: TA98, Metabolic Activation: NONE, Method: STANDARD PLATE.
[2] abbreviates: Test System: AMES SALMONELLA TYPHIMURIUM, Strain/Indicator: TA100, Metabolic Activation: NONE, Method: STANDARD PLATE.
[3] abbreviates: Test System: AMES SALMONELLA TYPHIMURIUM, Strain/Indicator: TA98, Metabolic Activation: NONE, Method: PREINCUBATION
Setting [4] is: Test System: AMES SALMONELLA TYPHIMURIUM, Strain/Indicator: TA100, Metabolic Activation: NONE, Method: PREINCUBATION

Calls of active or inactive are those of the source. No rule for the calls is given here.

For the compound `O=[N+]([O-])c1ccc2c(c1)CCc1c-2ccc2c1CCCC2`, the mutagenic call was “active; positive” (Test System: AMES SALMONELLA TYPHIMURIUM, Strain/Indicator: TA98(1,8-DNP6), Metabolic Activation: NONE); “active; positive” (Test System: AMES SALMONELLA TYPHIMURIUM, Strain/Indicator: TA98(1,8-DNP6), Metabolic Activation: RAT, LIVER, S-9, AROCLOR 1254); “active; positive” (Test System: AMES SALMONELLA TYPHIMURIUM, Strain/Indicator: TA98(NR), Metabolic Activation: NONE); “active; positive” (Test System: AMES SALMONELLA TYPHIMURIUM, Strain/Indicator: TA98(NR), Metabolic Activation: RAT, LIVER, S-9, AROCLOR 1254); “active; positive” (Test System: AMES SALMONELLA TYPHIMURIUM, Strain/Indicator: TA98, Metabolic Activation: NONE); “active; positive” (Test System: AMES SALMONELLA TYPHIMURIUM, Strain/Indicator: TA98, Metabolic Activation: RAT, LIVER, S-9, AROCLOR 1254). For the same compound, the mutagenic call was “inactive; negative” (Test System: AMES SALMONELLA TYPHIMURIUM, Strain/Indicator: TA100(NR), Metabolic Activation: NONE); “active; positive” (Test System: AMES SALMONELLA TYPHIMURIUM, Strain/Indicator: TA100(NR), Metabolic Activation: RAT, LIVER, S-9, AROCLOR 1254); “active; positive” (Test System: AMES SALMONELLA TYPHIMURIUM, Strain/Indicator: TA100, Metabolic Activation: NONE); “active; positive” (Test System: AMES SALMONELLA TYPHIMURIUM, Strain/Indicator: TA100, Metabolic Activation: RAT, LIVER, S-9, AROCLOR 1254); “active; positive” (Test System: AMES SALMONELLA TYPHIMURIUM, Strain/Indicator: TA104, Metabolic Activation: NONE); “active; positive” (Test System: AMES SALMONELLA TYPHIMURIUM, Strain/Indicator: TA104, Metabolic Activation: RAT, LIVER, S-9, AROCLOR 1254).
With `COC(=O)c1cc2c(c3c1c([N+](=O)[O-])cc1c(OC)cccc13)OCO2`, the mutagenic call was “active; positive” under setting [1]; “active; positive” under setting [2]; “inactive; negative” (Test System: AMES SALMONELLA TYPHIMURIUM, Strain/Indicator: TA102, Metabolic Activation: NONE, Method: STANDARD PLATE); “active; positive” (Test System: AMES SALMONELLA TYPHIMURIUM, Strain/Indicator: TA1537, Metabolic Activation: NONE, Method: STANDARD PLATE); “inactive; negative” (Test System: AMES SALMONELLA TYPHIMURIUM, Strain/Indicator: TM677/8-AZAGUANINE, Metabolic Activation: NONE, Method: SUSPENSION/PLATE).
As for `OC1c2cccc3ccc4c5ccccc5cc1c4c23` (stereo not given), the mutagenic call reads like this: (Test System: AMES SALMONELLA TYPHIMURIUM, Strain/Indicator: TA98, Metabolic Activation: HUMAN, LIVER, CYTOSOL, PAPS, Method: PREINCUBATION) “active; positive”; under setting [3], “active; positive”; (Test System: AMES SALMONELLA TYPHIMURIUM, Strain/Indicator: TA98, Metabolic Activation: RAT, LIVER, CYTOSOL, KCL, Method: PREINCUBATION) “inactive; negative”; (Test System: AMES SALMONELLA TYPHIMURIUM, Strain/Indicator: TA98, Metabolic Activation: RAT, LIVER, CYTOSOL, PAPS, KCL, Method: PREINCUBATION) “active; positive”; (Test System: AMES SALMONELLA TYPHIMURIUM, Strain/Indicator: TA98, Metabolic Activation: RAT, LIVER, CYTOSOL, PAPS, Method: PREINCUBATION) “active; positive”; (Test System: AMES SALMONELLA TYPHIMURIUM, Strain/Indicator: TA98, Metabolic Activation: RAT, LIVER, PAPS, KCL, Method: PREINCUBATION) “inactive; negative”. The mutagenic call (Test System: AMES SALMONELLA TYPHIMURIUM, Strain/Indicator: TA98, Metabolic Activation: RAT, LIVER, S-9, NADPH, Method: PREINCUBATION) is “active; positive”.
In the case of `ClC(Cl)=C(Cl)/C(Cl)=C(\Cl)SCc1ccccc1`, the mutagenic call reads like this: under setting [4], “inactive; negative”; (Test System: AMES SALMONELLA TYPHIMURIUM, Strain/Indicator: TA100, Metabolic Activation: RAT, LIVER, S-9, AROCLOR 1254, Method: PREINCUBATION) “active; positive”.
Regarding `NC(=O)N(CCF)N=O`, the mutagenic call by setting is: (Test System: E. COLI B, Strain/Indicator: H/R30R, Metabolic Activation: NONE) “active; positive”; (Test System: E. COLI B, Strain/Indicator: HS30R, Metabolic Activation: NONE) “active; positive”.
As for `O=C1C=C(Nc2ccccc2)C(=O)c2ccccc21`, the mutagenic call is, setting by setting: (Test System: AMES SALMONELLA TYPHIMURIUM, Strain/Indicator: TA97, Metabolic Activation: NONE, Method: PREINCUBATION) “inactive; negative”; (Test System: AMES SALMONELLA TYPHIMURIUM, Strain/Indicator: TA97, Metabolic Activation: RAT, LIVER, S-9, PHENOBARBITAL AND 5,6-BENZOFLAVONE, Method: PREINCUBATION) “active; positive”; under setting [3], “inactive; negative”; (Test System: AMES SALMONELLA TYPHIMURIUM, Strain/Indicator: TA98, Metabolic Activation: RAT, LIVER, S-9, PHENOBARBITAL AND 5,6-BENZOFLAVONE, Method: PREINCUBATION) “active; positive”; under setting [4], “inactive; negative”; (Test System: AMES SALMONELLA TYPHIMURIUM, Strain/Indicator: TA100, Metabolic Activation: RAT, LIVER, S-9, PHENOBARBITAL AND 5,6-BENZOFLAVONE, Method: PREINCUBATION) “inactive; negative”. For the same compound, the mutagenic call is “inactive; negative” (Test System: AMES SALMONELLA TYPHIMURIUM, Strain/Indicator: TA102, Metabolic Activation: NONE, Method: PREINCUBATION); “inactive; negative” (Test System: AMES SALMONELLA TYPHIMURIUM, Strain/Indicator: TA102, Metabolic Activation: RAT, LIVER, S-9, PHENOBARBITAL AND 5,6-BENZOFLAVONE, Method: PREINCUBATION); “inactive; negative” (Test System: AMES SALMONELLA TYPHIMURIUM, Strain/Indicator: TA104, Metabolic Activation: NONE, Method: PREINCUBATION); “active; positive” (Test System: AMES SALMONELLA TYPHIMURIUM, Strain/Indicator: TA104, Metabolic Activation: RAT, LIVER, S-9, PHENOBARBITAL AND 5,6-BENZOFLAVONE, Method: PREINCUBATION); “inactive; negative” (Test System: AMES SALMONELLA TYPHIMURIUM, Strain/Indicator: TA1535, Metabolic Activation: NONE, Method: PREINCUBATION); “inactive; negative” (Test System: AMES SALMONELLA TYPHIMURIUM, Strain/Indicator: TA1535, Metabolic Activation: RAT, LIVER, S-9, PHENOBARBITAL AND 5,6-BENZOFLAVONE, Method: PREINCUBATION). In addition, the mutagenic call by setting is: (Test System: AMES SALMONELLA TYPHIMURIUM, Strain/Indicator: TA1537, Metabolic Activation: NONE, Method: PREINCUBATION) “inactive; negative”; (Test System: AMES SALMONELLA TYPHIMURIUM, Strain/Indicator: TA1537, Metabolic Activation: RAT, LIVER, S-9, PHENOBARBITAL AND 5,6-BENZOFLAVONE, Method: PREINCUBATION) “active; positive”; (Test System: AMES SALMONELLA TYPHIMURIUM, Strain/Indicator: TA1538, Metabolic Activation: NONE, Method: PREINCUBATION) “inactive; negative”; (Test System: AMES SALMONELLA TYPHIMURIUM, Strain/Indicator: TA1538, Metabolic Activation: RAT, LIVER, S-9, PHENOBARBITAL AND 5,6-BENZOFLAVONE, Method: PREINCUBATION) “active; positive”; (Test System: AMES SALMONELLA TYPHIMURIUM, Strain/Indicator: TA2637, Metabolic Activation: NONE, Method: PREINCUBATION) “active; positive”; (Test System: AMES SALMONELLA TYPHIMURIUM, Strain/Indicator: TA2637, Metabolic Activation: RAT, LIVER, S-9, PHENOBARBITAL AND 5,6-BENZOFLAVONE, Method: PREINCUBATION) “active; positive”.
Turning to `Nc1ccc(CCc2ccccc2)cc1`, the mutagenic call is, setting by setting: under setting [1], “inactive; negative”; (Test System: AMES SALMONELLA TYPHIMURIUM, Strain/Indicator: TA98, Metabolic Activation: RAT, LIVER, S-9, AROCLOR 1254, Method: STANDARD PLATE) “active; positive”; under setting [2], “inactive; negative”; (Test System: AMES SALMONELLA TYPHIMURIUM, Strain/Indicator: TA100, Metabolic Activation: RAT, LIVER, S-9, AROCLOR 1254, Method: STANDARD PLATE) “active; positive”.
